Assay results: ChEMBL document CHEMBL3627640 (Bioorg Med Chem, 2015)

Target: T1, Mitogen-activated protein kinase kinase kinase 7 (Homo sapiens, UniProt O43318)
T1 sequence (O43318 whole entry): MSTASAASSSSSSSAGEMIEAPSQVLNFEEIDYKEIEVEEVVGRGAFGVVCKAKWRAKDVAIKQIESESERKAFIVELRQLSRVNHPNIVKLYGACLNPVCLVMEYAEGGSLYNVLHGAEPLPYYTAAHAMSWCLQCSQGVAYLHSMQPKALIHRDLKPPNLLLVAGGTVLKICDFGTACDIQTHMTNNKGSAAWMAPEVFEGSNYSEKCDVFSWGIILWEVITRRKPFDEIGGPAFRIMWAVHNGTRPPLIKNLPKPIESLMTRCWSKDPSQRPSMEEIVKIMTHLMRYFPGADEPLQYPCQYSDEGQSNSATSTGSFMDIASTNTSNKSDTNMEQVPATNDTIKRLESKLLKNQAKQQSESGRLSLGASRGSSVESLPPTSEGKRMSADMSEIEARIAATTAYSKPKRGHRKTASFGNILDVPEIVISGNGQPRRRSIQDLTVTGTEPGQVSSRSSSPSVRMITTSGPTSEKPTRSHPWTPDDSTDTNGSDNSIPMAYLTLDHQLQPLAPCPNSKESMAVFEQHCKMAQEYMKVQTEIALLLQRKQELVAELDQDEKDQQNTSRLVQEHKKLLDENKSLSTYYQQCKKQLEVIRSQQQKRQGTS
Assay: Inhibition of TAK1 (unknown origin)

SMILES | IC50
COc1cc(O)c2c(c1)/C=C/C[C@H](O)[C@H](O)C(=O)CCC[C@H](C)OC2=O | 2.6 µM
COc1cc(O)c2c(c1)[C@H]1O[C@@H]1C[C@H](O)[C@H](O)C(=O)CCC[C@H](C)OC2=O | > 30 µM
C/C=C/C=C\C(=O)[C@@H](O)[C@@H](O)C/C=C/c1cc(OC)cc(OC)c1C(=O)OC | > 30 µM

Now from value to molecule:

IC50 | SMILES
> 30 µM | COc1cc(O)cc2c1C(=O)O[C@@H](C)CCCCC/C=C/C(=O)C2
> 30 µM | COc1cc(O)c2c(c1)/C=C/C[C@@H]1OC(CC(=O)[C@H]1O)C[C@H](C)OC2=O
